Like-named read-outs stand apart in the source and are kept apart here.
Legend:
[1] = tested on: 8 cancer cell lines; test: Classification of drugs by Apotracker Red (apoptosis) and CellTrace Violet (proliferation) staining; type: cell-based; conditions: for effect on cell proliferation (CellTrace Violet): Figure S8
Protocol: (§1) To corroborate the versatility of Apotracker Red, we built a screening platform including a total of 8 cancer cell lines of variable origin and pathogenesis: breast (MCF7, MDA‐MB231 and MMTV‐PyMT (mouse mammary tumour virus‐polyoma middle tumour‐antigen)[23]), lung (A549), prostate (PC3 and LnCap), blood cells (Jurkat) and colon (HT29). All cell lines were cultured under standard conditions and seeded with the fluorescent proliferation marker CellTrace^TM Violet (CV) in 96‐well plates (10–20×10^3 cells/well) for high‐throughput flow cytometry. After drug treatment (i.e., drug addition plus 24 h incubation), Apotracker Red was incubated for 10 min and fluorescence readings were directly acquired without any additional processing steps (Figure 3 a). […] Using this platform, we tested a collection of FDA‐approved drugs in all cancer cell lines and compared their ability to induce apoptosis using Apotracker Red as the reporter. Specifically, we included DNA alkylation agents (e.g., cyclophosphamide, cisplatin, 5‐fluorouracil, gemcitabine, temozolomide), proteasomal and mitotic inhibitors (e.g., bortezomib, docetaxel, paclitaxel) and antagonists of specific proteins (e.g., dexamethasone, tamoxifen; Figure 3 b).
(§2) First, all drugs were tested in the 8 different cell lines to determine the percentages of Apotracker Red‐stained apoptotic cells compared to no treatment (Figure 3 c; Figure S8). […] All 5 drugs were tested at multiple concentrations (from 1 to 100 μM) and with incubation times up to 48 h to examine whether drugs could block cell proliferation at late stages (Figures S9–S13).
Figure S8. Heatmap of relative inhibition of cell proliferation (as indicated by staining of CellTraceTM Violet) after treatment of cancer cell lines with different drugs. Data presented as an average of 3 independent experiments. Cells were stained on day 0 with CellTraceTM Violet (1 µM) and mean fluorescence intensities were determined on the 5L LSR after 24 h of treatment with the different drugs. […]
Cell culture. MCF-7, A549, LnCap, MDA-MB-231, Jurkat T cells and PC3 cells were obtained from American Type Culture Collection (ATCC). HT29 cells were purchased from Merck (S i g m a Aldrich, UK). Mouse Mammary Tumour Virus –Polyoma Middle T antigen (MMTV -PyMT) cells were provided by the lab of Mikala Egeblad (CSHL, US). MMTV-PyMT, MCF-7, LnCap, MDA-MB-231 and Jurkat T cells were cultured in Roswell Park Memorial Institute (RPMI) 1640 Medium supplemented with 10% fetal bovine serum (FBS) , 100 U mL-1 penicillin and 0.1 mg mL-1 streptomycin. A549 and PC3 cells were cultured in Dublecco’s modified Eagle’s medium (DMEM) supplemented with 10% fetal bovine serum (FBS), 100 U mL-1 penicillin and 0.1 mg […]
Flow cytometry drug screen.

[2] = tested on: MDA-MB231 cells; test: Apotracker Red flow cytometry drug screen, MDA-MB231; type: cell-based, human; conditions: 1 to 100 μM, 48 h, Apotracker Red 150 nM, 3 independent experiments
Protocol: as §1, with “cytometry.” for “cytometry. After drug treatment (i.e., drug addition plus 24 h incubation), Apotracker Red was incubated for 10 min and fluorescence readings were directly acquired without any additional processing steps (Figure 3 a).”
Edinburgh. Human peripheral blood neutrophils were isolated as previously described.[3] Briefly, whole blood was drawn into tubes containing anti -coagulant 3.6% sodium citrate (final concentration: 0.4% (w/v)) and centrifuged at 350 g for 20 min at r.t. with lowest acceleration and no brake. Platelet-rich plasma was rem oved, and leukocytes separated from erythrocytes by 0.6% dextran sedimentation in saline for 30 min at r.t. The upper layer was further fractionated using an isotonic discontinuous Percoll density gradient. Neutrophils were harvested from the 63% and 72.9% interface and cultured in Iscove’s Modified Dulbecco’s Medium (IMDM, Gibco) in 5% h um an A B se rum fo r 1 8 h at 37°C, 5% CO2 to in du ce spontaneous […]
Cell culture. MCF-7, A549, LnCap, MDA-MB-231, Jurkat T cells and PC3 cells were obtained from American Type Culture Collection (ATCC). HT29 cells were purchased from Merck (S i g m a Aldrich, UK). Mouse Mammary Tumour Virus –Polyoma Middle T antigen (MMTV -PyMT) cells were provided by the lab of Mikala Egeblad (CSHL, US). […]

[3] = tested on: breast cancer cells (MMTV-PyMT, MDA-MB231, MCF7); test: Dose-dependency study in breast cancer cell lines; type: cell-based, mouse and human; conditions: 1 to 100 μM, 48 h, Apotracker Red 150 nM, 3 independent experiments
Protocol: as §2, with “S8). […] From this screen, we decided to select 5 drugs with potent pro‐apoptotic response in breast cancer, the most diagnosed cancer worldwide.[25] […] From group 2, we selected cyclophosphamide, tamoxifen, and 5‐fluorouracil as pro‐apoptotic molecules.” for “S8).”
Figure 4 Apotracker Red detects dose‐dependent chemotherapeutic‐induced apoptosis in mouse and human breast cancer cell lines. Cells were plated with 1 μM CV, treated with increasing concentrations (0, 1, 3, 10, 30 and 100 μM) of selected drugs for 48 h, and stained with Apotracker Red (150 nM) before data acquisition. Drugs: tamoxifen (beige), cisplatin (black), 5‐fluorouracil (green), gemcitabine (pink) and cyclophosphamide (red). Data presented as mean±SEM of 3 independent experiments.
Edinburgh. Human peripheral blood neutrophils were isolated as previously described.[3] Briefly, whole blood was drawn into tubes containing anti -coagulant 3.6% sodium citrate (final concentration: 0.4% (w/v)) and centrifuged at 350 g for 20 min at r.t. with lowest acceleration and no brake. Platelet-rich plasma was rem oved, and leukocytes separated from erythrocytes by 0.6% dextran sedimentation in saline for 30 min at r.t. […]
were centrifuged (300 g, 5 min, r.t.), washed once with PBS before addition of 0.05% Trypsin, 0.02% ethylenediaminetetraacetic acid (EDTA) in Hank’s balanced salt solution (HBSS) and incubation at 37°C for 5 min. […] Histograms and mean fluorescence intensities of apoptotic cells were measured on a 5L LSR flow cytometer under the following excitation/emission filters: Apotracker Red (561/610 nm), Annexin V-AF647 (647 /670 nm).
Data were acquired using the FACS Diva software and analysed using the FlowJo X software. […]

[4] = tested on: apoptotic cells (primary human neutrophils, Jurkat T cells); test: Divalent cation-independent staining, flow cytometry with EDTA; type: cell-based; conditions: 2.5 mM EDTA, Apotracker Red 150 nM, Annexin V-AF647 25 nM
[5] = 8 cancer cell lines, 24 h treatment, flow cytometry

O=c1[nH]cc(F)c(=O)[nH]1 [5-fluorouracil]
drug group by Apotracker Red (apoptosis) and CV (proliferation) staining [1, 5]: induced apoptosis with little reduction of cell proliferation | Apotracker Red staining in MDA-MB-231 cells, dose-dependency study [2]: weaker Apotracker Red‐staining

CC(C)C[C@H](NC(=O)[C@H](Cc1ccccc1)NC(=O)c1cnccn1)B(O)O [bortezomib]
drug group by Apotracker Red (apoptosis) and CV (proliferation) staining [1, 5]: induced apoptosis with little reduction of cell proliferation | effect on cell proliferation (CellTrace Violet) ([1]; 24 h treatment): very minor effects on cell proliferation

O=P1(N(CCCl)CCCl)NCCCO1 (stereo not shown) [cyclophosphamide]
drug group by Apotracker Red (apoptosis) and CV (proliferation) staining [1]: induced apoptosis with little reduction of cell proliferation | Apotracker Red staining in MDA-MB-231 cells, dose-dependency study [2]: weaker Apotracker Red‐staining

C[C@@H]1C[C@H]2[C@@H]3CCC4=CC(=O)C=C[C@]4(C)[C@@]3(F)[C@@H](O)C[C@]2(C)[C@@]1(O)C(=O)CO [dexamethasone]
drug group by Apotracker Red (apoptosis) and CV (proliferation) staining [1, 5]: had no impact on proliferation or apoptosis

CC(=O)O[C@@]12CO[C@@H]1C[C@H](O)[C@@]1(C)C(=O)[C@H](O)C3=C(C)[C@@H](OC(=O)[C@H](O)[C@@H](NC(=O)OC(C)(C)C)c4ccccc4)C[C@@](O)([C@@H](OC(=O)c4ccccc4)[C@H]21)C3(C)C [docetaxel]
drug group by Apotracker Red (apoptosis) and CV (proliferation) staining [1, 5]: inhibited cell proliferation but showed little or no induction of apoptosis

Nc1ccn([C@@H]2O[C@H](CO)[C@@H](O)C2(F)F)c(=O)n1 [gemcitabine]
drug group by Apotracker Red (apoptosis) and CV (proliferation) staining [1, 5]: induced apoptosis and decreased cell proliferation | Apotracker Red staining in MDA-MB-231 cells, dose-dependency study [2]: weaker Apotracker Red‐staining

CC(=O)O[C@H]1C(=O)[C@@]2(C)[C@H]([C@H](OC(=O)c3ccccc3)[C@]3(O)C[C@H](OC(=O)[C@H](O)[C@@H](NC(=O)c4ccccc4)c4ccccc4)C(C)=C1C3(C)C)[C@]1(OC(C)=O)CO[C@@H]1C[C@@H]2O [paclitaxel]
drug group by Apotracker Red (apoptosis) and CV (proliferation) staining [1, 5]: induced apoptosis with little reduction of cell proliferation | effect on cell proliferation (CellTrace Violet) ([1]; 24 h treatment): very minor effects on cell proliferation

CC/C(=C(\c1ccccc1)c1ccc(OCCN(C)C)cc1)c1ccccc1 [tamoxifen]
drug group by Apotracker Red (apoptosis) and CV (proliferation) staining [1, 5]: induced apoptosis with little reduction of cell proliferation | percentages of Apotracker Red staining across all breast cancer cells, dose-dependency study [3]: highest percentages of Apotracker Red staining

Cn1nnc2c(C(N)=O)ncn2c1=O [temozolomide]
drug group by Apotracker Red (apoptosis) and CV (proliferation) staining [1, 5]: inhibited cell proliferation but showed little or no induction of apoptosis

B1: Annexin V‐AF647: a 36 kDa protein marker of PtdSer in the presence of Ca2+ ions (protein, UniProt P08758 2-320, looked up)
Annexin A5: AQVLRGTVTDFPGFDERADAETLRKAMKGLGTDEESILTLLTSRSNAQRQEISAAFKTLFGRDLLDDLKSELTGKFEKLIVALMKPSRLYDAYELKHALKGAGTNEKVLTEIIASRTPEELRAIKQVYEEEYGSSLEDDVVGDTSGYYQRMLVVLLQANRDPDAGIDEAQVEQDAQALFQAGELKWGTDEEKFITIFGTRSVSHLRKVFDKYMTISGFQIEETIDRETSGNLEQLLLAVVKSIRSIPAYLAETLYYAMKGAGTDDHTLIRVMVSRSEIDLFNIRKEFRKNFATSLYSMIKGDTSGDYKKALLLLCGEDD
modifications: Alexa Fluor 647 label
notes: a 36 kDa protein marker of PtdSer in the presence of Ca2+ ions
staining of apoptotic cells after chelation of divalent cations [4]: failed to bind

— PMC10947113, “A Bivalent Activatable Fluorescent Probe for Screening and Intravital Imaging of Chemotherapy‐Induced Cancer Cell Death” (Angewandte Chemie (Weinheim an Der Bergstrasse, Germany), 2021)
